Reference: patent US10016383B2, “Inhibitors of metallo-β-lactamase-enzymes” (McMaster University, priority 2013, dated 2018)

How the values were obtained:
ACE = molecular target: T1, ACE (Oryctolagus cuniculus, UniProt P12822); assay: Incubation of AM-A with metalloenzymes in Zn2+-depleted buffer; type: biochemical, rabbit; settings: extended incubation, AM-A 0.5 mM
T1 construct: as well as ACE from rabbit lung; from tissue; host or cells: rabbit lung
T1 sequence (P12822 34-1310): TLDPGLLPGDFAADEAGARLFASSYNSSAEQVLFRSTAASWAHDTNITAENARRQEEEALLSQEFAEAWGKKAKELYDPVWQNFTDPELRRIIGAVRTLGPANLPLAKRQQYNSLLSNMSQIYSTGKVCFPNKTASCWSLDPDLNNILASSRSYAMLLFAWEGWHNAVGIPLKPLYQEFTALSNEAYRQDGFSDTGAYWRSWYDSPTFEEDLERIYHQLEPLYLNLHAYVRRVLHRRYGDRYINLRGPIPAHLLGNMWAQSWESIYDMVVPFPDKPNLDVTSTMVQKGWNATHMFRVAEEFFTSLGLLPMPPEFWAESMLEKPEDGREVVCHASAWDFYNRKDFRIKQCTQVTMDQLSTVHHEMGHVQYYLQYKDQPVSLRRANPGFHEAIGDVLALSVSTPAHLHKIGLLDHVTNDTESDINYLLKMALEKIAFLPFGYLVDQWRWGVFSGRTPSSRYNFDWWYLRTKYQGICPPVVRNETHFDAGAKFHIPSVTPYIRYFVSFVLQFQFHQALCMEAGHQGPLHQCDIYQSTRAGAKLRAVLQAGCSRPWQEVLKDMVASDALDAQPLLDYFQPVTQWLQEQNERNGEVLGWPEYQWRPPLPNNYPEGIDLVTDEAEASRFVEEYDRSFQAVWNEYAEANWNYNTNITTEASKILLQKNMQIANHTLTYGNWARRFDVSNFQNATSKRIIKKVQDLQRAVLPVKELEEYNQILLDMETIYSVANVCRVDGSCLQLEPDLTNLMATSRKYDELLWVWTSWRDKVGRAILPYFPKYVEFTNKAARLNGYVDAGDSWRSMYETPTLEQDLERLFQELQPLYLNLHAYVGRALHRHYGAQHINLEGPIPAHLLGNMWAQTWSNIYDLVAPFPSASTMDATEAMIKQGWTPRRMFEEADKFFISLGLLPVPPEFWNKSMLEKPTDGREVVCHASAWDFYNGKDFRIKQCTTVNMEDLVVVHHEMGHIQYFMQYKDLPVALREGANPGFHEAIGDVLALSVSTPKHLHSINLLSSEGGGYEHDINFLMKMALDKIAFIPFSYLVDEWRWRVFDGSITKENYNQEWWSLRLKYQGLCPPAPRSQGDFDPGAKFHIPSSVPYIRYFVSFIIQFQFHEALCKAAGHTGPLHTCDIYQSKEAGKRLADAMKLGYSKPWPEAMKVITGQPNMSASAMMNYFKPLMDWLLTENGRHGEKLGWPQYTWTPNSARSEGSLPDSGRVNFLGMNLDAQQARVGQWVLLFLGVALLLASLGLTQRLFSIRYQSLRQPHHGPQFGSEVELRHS
Experimental: Enzyme (500 nM) was incubated with AM-A (500 μM) for 10 minutes. 20 μL of the above was diluted with 180 μL nitrocefin or FAPGG substrate for the following final concentrations: Enzyme (50 nM), FAPGG (50 μM)/nitrocefin (20 μM), AM-A (50 μM). Buffer (50 mM HEPES pH 7.5, 300 mM NaCl) was stirred overnight with 2 g/100 mL Chelex-100 (Biorad; Richmond, Calif.). Assays were read in 96-well microplate format at 490 nm using a Spectramax reader (Molecular Devices) at 37° C.

[1] = test system: E. coli BW25113ΔbamBΔtolCΔaraDAB::pLac(blaNDM-1); assay: Cell-based screen for NDM-1 inhibitors with sub-lethal meropenem; design: species or system Escherichia coli; settings: in combination with meropenem
Experimental: A cell-based screen for inhibitors of the NDM-1 metallo-β-lactamase using a collection of natural product extracts derived from environmental microorganisms was performed. To increase the sensitivity of the screen to MBL inhibitor discovery a test strain of Escherichia coli BW25113 in which the bamB and tolC genes were independently deleted (E. coli BW25113ΔbamBΔtolC) was generated. BamB is involved in outer membrane porin assembly and disruption results in increased permeability to small molecules^19 and TolC is a part of the tripartite small molecule efflux systems such as AcrA-AcrB-TolC that serve to actively eliminate small molecules from the cell^20. Therefore, E. coli BW25113ΔbamBΔtolC increases the sensitivity of the screen to discovery of “hits”. This strain was further modified by integrating the blaNDM-1β-lactamase gene under control of the pLac promoter into the chromosome [E. coli BW25113ΔbamBΔtolCΔaraDAB::pLac(blaNDM-1)]. This strain was screened in the presence of a sub-lethal concentration of meropenem (of the minimum inhibitory concentration 0.125 μg/mL) in combination with ˜500 natural product extracts.
˜500 natural product extracts were screened against E. coli BW25113ΔbamBΔto1CΔaraDAB::pLac(blaNDM-1) in combination with 0.125 μg/mL meropenem. […] Z′ was determined to be 0.77, indicating an excellent screening window^22.

## N[C@H](CN[C@H](CN[C@@H](CC(=O)O)C(=O)O)C(=O)O)C(=O)O [AM-A, aspergillomarasmine A]
ACE
  inhibition at 500 µM: ~50%
[1]
  restoration of meropenem antibiotic activity: restored meropenem activity
